Laboratory results taken from PMC11396129, “Oxindole–benzothiazole hybrids as CDK2 inhibitors and anticancer agents: design, synthesis and biological evaluation” (BMC Chemistry, 2024).
Each block holds one compound with its values, some of them ahead of it.

What was measured:
breast cancer = test system: breast cancer; parameters: method as in PMID 16392802; details: cited from earlier work
CDK2 = biological target: T1, CDK2 (Homo sapiens, UniProt P24941); details: read-out: CDK2 inhibitory activity IC50; cited from earlier work
T1 construct: purchased BPS Biosciences 79599

- melting point: 275 to 277 °C
SMILES: O=C(COc1ccccc1-c1nc2ccccc2s1)NN=C1C(=O)Nc2ccc([N+](=O)[O-])cc21 [Compound 9d, 2-(2-(Benzo[d]thiazol-2-yl)phenoxy)-N′-(5-nitro-2-oxoindolin-3-ylidene)acetohydrazide]

SMILES: COc1ccc(-c2nc3cc(F)ccc3s2)cc1OC [GW 610 (VII), 2-(3,4-dimethoxyphenyl)-5-fluorobenzothiazole]
- growth inhibitory activity in vitro (breast cancer): sub-nanomolar

SMILES: O=C1Nc2ccccc2/C1=C1/Nc2ccccc2/C1=N\O [indirubin-3′-oxime (IV), indirubin-3′-oxime]
- IC50 (CDK2): 440 nM
